# Test results as given in article PMC5733478, “A Non-imaging High Throughput Approach to Chemical Library Screening at the Unmodified Adenosine-A3 Receptor in Living Cells” (Frontiers in Pharmacology, 2017).
# Structures can show the parent of a compound that is named as a salt.
# Target: T1, human A3AR (Homo sapiens, UniProt P0DMS8)
# T1 construct: expressed in transfected cells
# T1 sequence (P0DMS8 1-318): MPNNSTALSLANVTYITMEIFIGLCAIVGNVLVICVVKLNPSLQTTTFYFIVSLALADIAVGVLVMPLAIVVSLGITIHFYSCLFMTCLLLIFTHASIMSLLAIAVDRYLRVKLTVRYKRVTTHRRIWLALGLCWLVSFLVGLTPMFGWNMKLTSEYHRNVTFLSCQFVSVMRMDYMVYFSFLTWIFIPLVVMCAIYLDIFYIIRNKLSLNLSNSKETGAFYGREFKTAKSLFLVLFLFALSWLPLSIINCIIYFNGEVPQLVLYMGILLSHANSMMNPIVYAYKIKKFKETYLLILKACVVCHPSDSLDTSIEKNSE
# Experiment: LOPAC library primary screen: single concentration (10 μM) inhibition of 25 nM CA200645 binding, PHERAstar FS
# Conditions: not given
row,Compound,% 25 nM CA200645 binding [%]
1,CC(C)NCC(O)COc1ccc(COCCOC(C)C)cc1.CC(C)NCC(O)COc1ccc(COCCOC(C)C)cc1.O=C(O)/C=C/C(=O)O (centres unmarked) [Bisoprolol hemifumarate salt],106.9 ± 6.1
2,Br.Oc1cc2c(c(Cl)c1O)CCNCC2c1ccccc1 (racemic) [(±)-6-Chloro-PB hydrobromide],99.3 ± 4.1
3,NC(CO)(CO)CO.O=C(c1ccccc1)c1ccc2n1CCC2C(=O)O (centres unmarked) [Ketorolac tris salt],93.7 ± 13.0
4,COc1ccc2[nH]cc(CCNC(C)=O)c2c1 [Melatonin],106.6 ± 11.6
5,CC(C)(C)c1ccc(S(=O)(=O)/C=C/C#N)cc1 [Bay 11-7085],95.2 ± 7.7
6,Fc1ccc([C@@H]2CCNC[C@H]2COc2ccc3c(c2)OCO3)cc1 [Paroxetine hydrochloride hemihydrate],97.2 ± 4.3
7,CSc1ccc(C(=O)c2[nH]c(=O)[nH]c2C)cc1 [Enoximone],102.3 ± 5.2
8,CC1=C(/C=C/C(C)=C/C=C/C(C)=C\C(=O)O)C(C)(C)CCC1 [13-cis-retinoic acid],85.2 ± 2.9
9,CC(C)[C@H]1CN[C@H](C(=O)O)[C@H]1CC(=O)O [Dihydrokainic acid],92.4 ± 30.0
10,CC(C)(C)c1cc(/C=C(\C#N)C(N)=S)cc(C(C)(C)C)c1O [Tyrphostin AG 879],57.5 ± 23.0
11,"CCCOC(=O)c1c(-c2ccccc2)nc(CC)c(C(=O)SCC)c1CCC [MRS 1523, reference compound]",57.3 ± 10.9
12,Nc1ccc(CCN2CCN(c3cccc(C(F)(F)F)c3)CC2)cc1 [PAPP],95.6 ± 9.9
13,C[C@@H]1O[C@H](C[N+](C)(C)C)C[C@H]1O.[Cl-] (racemic) [(±)-Muscarine chloride],94.8 ± 15.8
14,"CNC(=O)[C@H]1O[C@@H](n2cnc3c(NCc4ccc(N)cc4)ncnc32)[C@H](O)[C@@H]1O [AB-MECA, reference compound]",48.5 ± 9.1
15,CC1CCN=C(N)S1.Cl (racemic) [(±)-AMT hydrochloride],100.6 ± 12.5
16,Oc1ccc(C2CNCCc3c2cc(O)c(O)c3Cl)cc1 (centres unmarked) [Fenoldopam bromide],90.6 ± 5.5
17,COc1ccc2c(c1)CC[C@@H]1[C@@H]2CC[C@]2(C)[C@@H](NCCCCCCN3C(=O)C=CC3=O)CC[C@@H]12 [U-73122],73.1 ± 7.4
18,COC(=O)c1c(C)[nH]c(C)c1C(=O)c1ccccc1Cc1ccccc1 [FPL 64176],74.2 ± 6.7
19,CC(C)(C)NC[C@H](O)COc1nsnc1N1CCOCC1.O=C(O)/C=C\C(=O)O [S(-)-Timolol maleate],103.3 ± 4.5
20,C[N+](C)(C)CC#CCOC(=O)Nc1cccc(Cl)c1.[Cl-] [McN-A-343],93.8 ± 10.4

row,Compound,% 25 nM CA200645 binding [%]
1,COc1ccc(C(CN(C)C)C2(O)CCCCC2)cc1 (centres unmarked) [Venlafaxine hydrochloride],97.3 ± 8.5
2,"CC(C)NCC(O)c1ccc(O)c(O)c1.Cl (single isomer, unassigned; (-)) [(-)-Isoproterenol hydrochloride]",98.6 ± 14.4
3,NS(=O)(=O)c1cc(C(=O)O)c(NCc2ccco2)cc1Cl [Furosemide],95.7 ± 5.9
4,O=C(O)C1CCNCC1 [Isonipecotic acid],88.5 ± 19.5
5,CC(=O)c1ccc(S(=O)(=O)NC(=O)NC2CCCCC2)cc1 [Acetohexamide],101.4 ± 13.1
6,CN(CC[C@@H](Oc1ccc(C(F)(F)F)cc1)c1ccccc1)CC(=O)[O-].[Li+] [Org 24598 lithium salt],94.3 ± 5.8
7,Cl.NCCC[C@](N)(C(=O)O)C(F)F (racemic),103.2 ± 12.1
8,CC(C)COC(=O)OCN1C(=O)CN(CCN2CC(=O)N(COC(=O)OCC(C)C)C(=O)C2)CC1=O [Sobuzoxane],111.5 ± 7.6
9,CN1CCc2cccc3c2[C@H]1Cc1ccc(O)c(O)c1-3 [Apomorphine hydrochloride hemihydrate],95.0 ± 6.4
10,CC1=C(CC(=O)O)c2cc(F)ccc2/C1=C\c1ccc(S(C)(=O)=O)cc1 [Sulindac sulfone],84.5 ± 13.2
11,Cc1cc2c(C(C)C)c(O)c(O)c(C=O)c2c(O)c1-c1c(C)cc2c(C(C)C)c(O)c(O)c(C=O)c2c1O [Gossypol],54.1 ± 12.3
12,COc1ccc(OC)c(C(O)C(C)N)c1 (centres unmarked) [Methoxamine hydrochloride],132.3 ± 57.0
13,CCn1cc(C(=O)O)c(=O)c2cc3c(cc21)OCO3 [Oxolinic acid],101.1 ± 12.4
14,"O=c1oc(Cl)c(Cl)c2ccccc12 [3,4-Dichloroisocoumarin]",95.8 ± 9.3
15,c1ccc2c(c1)CCCC2C1=NCCN1 (centres unmarked) [Tetrahydrozoline hydrochloride],98.2 ± 6.4
16,CC(C)(C)c1cc(C=C(C#N)C#N)cc(C(C)(C)C)c1O [Tyrphostin A9],93.2 ± 14.5
17,Cc1ncc(CNC(=O)N(CCCl)N=O)c(N)n1 [Nimustine hydrochloride],95.2 ± 13.6
18,CCN(CC)CCNC(=O)c1cc(Cl)c(N)cc1OC.Cl [Metoclopramide hydrochloride],106.5 ± 2.9
19,Cl.OC1CCCCC1N1CCC(c2ccccc2)CC1 (racemic) [(±)-Vesamicol hydrochloride],112.9 ± 7.4
20,CC#C[C@]1(O)CC[C@H]2[C@@H]3CCC4=CC(=O)CCC4=C3[C@@H](c3ccc(N(C)C)cc3)C[C@@]21C [Mifepristone],83.5 ± 5.2

row,Compound,% 25 nM CA200645 binding [%]
1,Cl.NCCS [Cysteamine hydrochloride],89.3 ± 6.0
2,CC(C)(NS(=O)(=O)c1ccc(Oc2ccc(F)cc2)cc1)C(=O)NO [CP-471474],98.7 ± 17.5
3,O=C(O)/C=C\C(=O)O.O=C(O)/C=C\C(=O)O.c1cc(CN2CCCCC2)cc(OCCCNc2nc3ccccc3s2)c1 [SKF 95282 dimaleate],120.1 ± 40.0
4,O=[N+]([O-])c1ccc(CSc2ncnc3c2ncn3[C@@H]2O[C@H](CO)[C@@H](O)[C@H]2O)cc1 [S-(4-Nitrobenzyl)-6-thioinosine],95.1 ± 33.3
5,CC(C)(Oc1ccc(C2CC2(Cl)Cl)cc1)C(=O)O (centres unmarked) [Ciprofibrate],98.7 ± 5.2
6,C[N+](C)(C)CCOC(=O)CBr.[Br-] [Bromoacetylcholine bromide],95.1 ± 8.8
7,CNCCCC12CCC(c3ccccc31)c1ccccc12 [Maprotiline hydrochloride],93.0 ± 35.9
8,CC(N)(Cc1ccc(O)cc1)C(=O)O (racemic) [DL-alpha-Methyl-p-tyrosine],102.4 ± 5.8
9,Cc1[nH]c(=O)c(C#N)cc1-c1ccncc1 [Milrinone],97.0 ± 4.9
10,CS(=O)(=O)O.Cn1cc(C(F)(F)F)nc1-c1ccc(OCC(O)CNCCOc2ccc(O)c(C(N)=O)c2)cc1 (centres unmarked) [CGP 20712A methanesulfonate],106.4 ± 13.7
11,C[N+]1(CCCCC[N+]2(C)CCCC2)CCCC1.O=C([O-])C(O)C(O)C(=O)O.O=C([O-])C(O)C(O)C(=O)O [Pentolinium di[L(+)-tartrate]],106.3 ± 2.7
12,"O=c1nc2[nH]c3ccccc3nc-2c(=O)[nH]1 [alloxazine, reference compound]",89.0 ± 4.9
13,CN(C)CC/C=C1/c2ccccc2Sc2ccc(Cl)cc21 [Chlorprothixene hydrochloride],96.6 ± 7.7
14,O=c1c2ccccc2[nH]c(=S)n1CCN1CCC(=C(c2ccc(F)cc2)c2ccc(F)cc2)CC1 [Diacylglycerol Kinase Inhibitor II],51.5 ± 9.4
15,C/C=C(/C)C(=O)O[C@H]1C(C)=C2[C@H]([C@@H]1OC(=O)CCCCCCC)[C@@](C)(OC(C)=O)C[C@H](OC(=O)CCC)[C@@]1(O)[C@H]2OC(=O)[C@@]1(C)O [Thapsigargin],65.1 ± 10.7
16,O=c1onc2n1-c1cc(Br)ccc1OC2 [NS 2028],100.2 ± 8.6
17,COC(=O)[C@@H](N)CCCN=C(N)N[N+](=O)[O-].Cl,109.0 ± 16.7
18,"C[N+]1(C)[C@@H]2CC(OC(=O)[C@H](CO)c3ccccc3)C[C@H]1[C@@H]1O[C@@H]12.O=[N+]([O-])[O-] (single isomer, unassigned; (-)) [(-)-Scopolamine methyl nitrate]",89.5 ± 24.4
19,O=C(NCCN1CCOCC1)c1ccc(Cl)cc1 [Moclobemide],97.8 ± 6.0

# Same assay, conditions: 10 μM compound, 25 nM CA200645, A3AR CHO cells
row,Compound,hit in LOPAC primary screen (inhibited the binding of CA200645 by >40%)
1,"CCOC(=O)c1cnc2c(cnn2CC)c1NN=C(C)C [etazolate hydrochloride, reference compound]",identified
2,"O=c1nc2[nH]c3ccccc3nc-2c(=O)[nH]1 [alloxazine, reference compound]",not identified as hits

# Same assay, conditions: % of 25 nM CA200645 binding in the presence of 10 μM compound, LOPAC full screen, A3AR CHO cells
row,Compound,% Total CA200645 binding [%]
1,"CCCOC(=O)c1c(-c2ccccc2)nc(CC)c(C(=O)SCC)c1CCC [MRS 1523, reference compound]",58.3 ± 11.4
2,"CNC(=O)[C@H]1O[C@@H](n2cnc3c(NCc4ccc(N)cc4)ncnc32)[C@H](O)[C@@H]1O [AB-MECA, reference compound]",49.5 ± 5.8

# Same assay, conditions: % of control wells (1% DMSO and 25 nM CA200645); compounds at 10 µM; whole live cells expressing the A3AR; mean ± SD, three experiments in duplicate
row,% 25 nM CA200645 binding [%],Compound
1,46.2 ± 5.3,"CCOC(=O)c1cnc2c(cnn2CC)c1NN=C(C)C [etazolate hydrochloride, reference compound]"
2,98.4 ± 14.7,Clc1ccc2c(c1)N=C(N1CCNCC1)c1ccccc1N2 [N-Desmethylclozapine]

row,Compound,% 25 nM CA200645 binding [%]
1,O=C(O)CNC(=O)C(CS)Cc1ccccc1 (racemic) [DL-Thiorphan],100.0 ± 12.5

# Same assay, conditions: compounds tested at 10 µM; % of control wells (1% DMSO and 25 nM CA200645); whole live cells expressing the A3AR; mean ± SD, three experiments in duplicate
row,% 25 nM CA200645 binding [%],Compound
1,93.4 ± 5.4,C[C@@H]1C(=O)NC2=Nc3cccc(Cl)c3CN21 [Quazinone]
2,106.8 ± 10.4,NCCS(=O)(=O)O [Taurine]
